This passage reports IC50 and Activity results from ChEMBL document CHEMBL3739376, “Synthesis and biological evaluation of N-(4-phenylthiazol-2-yl)cinnamamide derivatives as novel potential anti-tumor agents” (Medchemcomm, 2015).

Calls of active or inactive are those of the source. No cut-off for these calls is given here. A value given as a limit tells only on which side of the number the result lay.

Test [1] relates to K562. The test can be described thus: Cytotoxicity against human K562 cells assessed as inhibition of cell proliferation after 96 hrs by MTT assay. It is filed as functional, cell-based. To be noted: K562, 96 h.
The nature of test [2]: Cytotoxicity against human Bel7402 cells assessed as inhibition of cell proliferation after 96 hrs by MTT assay. It is filed as functional, cell-based. To be noted: Bel-7402, 96 h. For orientation: Tetrazolium assays rely on reduction of a dye to a coloured formazan, in cell work by metabolically active cells.
Test [3] has as its system HEK293. The test can be described thus: Cytotoxicity against HEK293 cells assessed as inhibition of cell proliferation after 96 hrs by MTT assay. To be noted: Homo sapiens, HEK293, 96 h. It is filed as cell-based.
Test [4] deals with Vero. The test can be described thus: Cytotoxicity against african green monkey Vero cells assessed as inhibition of cell proliferation after 96 hrs by MTT assay. To be noted: Chlorocebus sabaeus. The format is cell-based.
The nature of test [5]: Cytotoxicity against human LO2 cells assessed as inhibition of cell proliferation after 96 hrs by MTT assay. It is filed as cell-based. To be noted: L02, 96 h.
Test [6] in a line: Cytotoxicity against human OCI-LY1 cells assessed as inhibition of cell proliferation after 96 hrs by MTT assay. The format is functional, cell-based. To be noted: OCI-Ly1, 96 h.
Test [7] has as its system MCF7. The test can be described thus: Cytotoxicity against human MCF7 cells assessed as inhibition of cell proliferation after 96 hrs by MTT assay. It is filed as functional, cell-based. To be noted: MCF7, 96 h.
Test [8] is described as follows: Cytotoxicity against human MV411 cells assessed as inhibition of cell proliferation after 96 hrs by MTT assay. The format is functional, cell-based. To be noted: MV4-11, 96 h.
Test [9] deals with MDA-MB-468. In words: Cytotoxicity against human MDA-MB-468 cells assessed as inhibition of cell proliferation after 96 hrs by MTT assay. The format is functional, cell-based. To be noted: MDA-MB-468, 96 h.
Test [10] deals with Jurkat. In words: Cytotoxicity against human Jurkat cells assessed as inhibition of cell proliferation after 96 hrs by MTT assay. The format is functional, cell-based.
For test [11], the system named is A549. In words: Cytotoxicity against human A549 cells assessed as inhibition of cell proliferation after 96 hrs by MTT assay. It is filed as functional, cell-based. Conditions: A549, 96 h.
Test [12] deals with Bel-7402. In words: Induction of apoptosis in human Bel7402 cells assessed as condensed nuclei at 0.37 to 10 uM after 48 hrs by […] staining-based fluorescence microscopic analysis. It is filed as functional, cell-based.
The test system of test [13] is Bel-7402. In words: Induction of apoptosis in human Bel7402 cells after 48 hrs by propidium iodide staining-based fluorescence microscopic analysis. The format is functional, cell-based.
Test [14] has as its system Jurkat. The test can be described thus: Induction of apoptosis in human Jurkat cells at 3.3 uM after 48 hrs by propidium iodide staining-based fluorescence microscopic analysis. The format is functional.
Test [15] deals with Bel-7402. The test can be described thus: Induction of apoptosis in human Bel7402 cells at 0.37 uM after 48 hrs by propidium iodide staining-based fluorescence microscopic analysis. The format is functional.
The subject of test [16] is K562. The test can be described thus: Induction of apoptosis in human K562 cells at 3.3 uM after 48 hrs by propidium iodide staining-based fluorescence microscopic analysis. It is filed as functional.
In test [17] the test system is Bel-7402. In words: Induction of apoptosis in human Bel7402 cells at 10 uM after 48 hrs by propidium iodide staining-based fluorescence microscopic analysis. The format is functional.
The test system of test [18] is Bel-7402. The test can be described thus: Induction of apoptosis in human Bel7402 cells at 3.3 uM after 48 hrs by propidium iodide staining-based fluorescence microscopic analysis. The format is functional.
In test [19] the test system is A549. The test can be described thus: Induction of apoptosis in human A549 cells at 3.3 uM after 48 hrs by propidium iodide staining-based fluorescence microscopic analysis. It is filed as functional.
Test [20] relates to Bel-7402. The test can be described thus: Induction of apoptosis in human Bel7402 cells at 1.1 uM after 48 hrs by propidium iodide staining-based fluorescence microscopic analysis. It is filed as functional.

For `O=C(/C=C/c1ccc(N2CCOCC2)cc1)Nc1nc(-c2ccc(F)cc2)cs1`, the IC50 (commonly the midpoint of a concentration-inhibition curve) in test [1] was determined as 7.3 µM.

On to `CCOc1cc(C)c(-c2csc(NC(=O)/C=C/c3ccc(N4CCOCC4)cc3)n2)c(C)c1`, for which the IC50 in test [1] was 2.09 µM.

As to `COc1cc(F)c(-c2csc(NC(=O)/C=C/c3ccc(N4CCOCC4)cc3)n2)c(F)c1`, the IC50 in [1] was 30.3 µM.

With `Cc1cc(C)cc(-c2csc(NC(=O)/C=C/c3ccc(N4CCOCC4)cc3)n2)c1`, in [1], the IC50 is over 90 µM.

Take `Cc1cc(C)c(-c2csc(NC(=O)/C=C/c3ccc(N4CCOCC4)cc3)n2)c(C)c1`: the IC50 was 10.6 µM in [2]; over 90 µM in test [3]; over 90 µM in test [4]; over 90 µM in test [5]; 11.7 µM in test [6]; 20 µM in test [7]. Also, the IC50 was 6.42 µM in test [8]; 0.61 µM in test [1]; over 30 µM in test [9]; 9.05 µM in [10]; 4.29 µM in test [11].

With `Cc1cc(C)c(-c2csc(NC(=O)/C=C/c3ccc(C(F)(F)F)cc3)n2)c(C)c1`, the IC50 was 34.1 µM in test [2]; over 90 µM in [3]; over 90 µM in [4]; over 90 µM in [5]; 3.69 µM in test [6]; over 30 µM in test [7]. Besides, the half-maximal inhibitory concentration (IC50) in [8] amounted to 3.65 µM; in test [1], 0.48 µM; in test [9] it was 1.53 µM; in test [10] it was 1.15 µM; in [11] it was 0.2 µM.

Regarding `Cc1cc(C)c(-c2csc(NC(=O)/C=C/c3ccccc3)n2)c(C)c1`, in [1], the IC50 was 40.4 µM.

Take `Cc1cc(C)c(-c2csc(NC(=O)/C=C/c3ccc(C4CC4)cc3)n2)c(C)c1`: the IC50 in test [2] was 6.58 µM; in test [3], over 90 µM; in test [4], over 90 µM; in test [5], over 90 µM; in [6] it was 1.63 µM; in test [7] it was 7.76 µM. The IC50 in test [8] worked out at 1.41 µM; in test [1], 0.38 µM; in [9], 15.7 µM; in test [10] it was 1.24 µM; in test [11], 1.17 µM.

On to `Cc1ccc(-c2csc(NC(=O)/C=C/c3ccc(N4CCOCC4)cc3)n2)c(C)c1`, for which the half-maximal inhibitory concentration (IC50) in test [1] was 5.38 µM.

As for `Cc1cc(C)c(-c2csc(NC(=O)/C=C/c3ccc(Br)cc3)n2)c(C)c1`, the IC50 in test [1] was 4.59 µM.

Turning to `Cc1cccc(-c2csc(NC(=O)/C=C/c3ccc(N4CCOCC4)cc3)n2)c1`, the IC50 in test [1] turned out to be 7.51 µM.

In the case of `CC(=O)O[C@H]1C(=O)[C@@]2(C)[C@H]([C@H](OC(=O)c3ccccc3)[C@]3(O)C[C@H](OC(=O)[C@H](O)[C@@H](NC(=O)c4ccccc4)c4ccccc4)C(C)=C1C3(C)C)[C@]1(OC(C)=O)CO[C@@H]1C[C@@H]2O` [PACLITAXEL], the IC50 in test [2] was over 10 µM; in test [6], 0.18 µM; in test [8], 0.75 µM; in test [1] it was 1.26 µM; in test [9], 0.31 µM; in test [10] it was 0.69 µM. In test [11], the IC50 came out at 0.74 µM.

Regarding `Cc1cc(C)c(-c2csc(NC(=O)/C=C/c3ccncc3)n2)c(C)c1`, the IC50 in test [1] was found to be 9.39 µM.

Regarding `COc1ccccc1-c1csc(NC(=O)/C=C/c2ccc(N3CCOCC3)cc2)n1`, the IC50 in test [1] was over 90 µM.

For `Cc1cc(C)c(-c2csc(NC(=O)/C=C/c3ccc(N4CCCCC4)cc3)n2)c(C)c1`, the IC50 in test [1] worked out at 4.06 µM.

As for `O=C(/C=C/c1ccc(N2CCOCC2)cc1)Nc1nc(-c2ccccc2)cs1`, in [1], the IC50 is 12.6 µM.

In the case of `COc1ccc(-c2csc(NC(=O)/C=C/c3ccc(N4CCOCC4)cc3)n2)cc1`, the half-maximal inhibitory concentration (IC50) in test [1] came to 14.6 µM.

For the compound `O=C(/C=C/c1ccc(N2CCOCC2)cc1)Nc1nc(-c2cccc(F)c2)cs1`, in test [1], the IC50 stood at 5.73 µM.

`Cc1ccc(/C=C/C(=O)Nc2nc(-c3c(C)cc(C)cc3C)cs2)cc1`: in test [1], the IC50 came out at 7.88 µM.

With `Cc1cc(C)c(-c2csc(NC(=O)/C=C/c3ccc([N+](=O)[O-])cc3)n2)c(C)c1`, the half-maximal inhibitory concentration (IC50) in test [1] amounted to 32.2 µM.

With `COCCOc1ccc(/C=C/C(=O)Nc2nc(-c3c(C)cc(C)cc3C)cs2)cc1`, in test [1], the IC50 came to 1.49 µM.

On to `CCOc1ccc(/C=C/C(=O)Nc2nc(-c3c(C)cc(C)cc3C)cs2)cc1`, for which, in test [1], the IC50 stood at 2.48 µM.

As to `COc1ccc(/C=C/C(=O)Nc2nc(-c3c(C)cc(C)cc3C)cs2)cc1`, in test [1], the IC50 worked out at 4.16 µM.

For `COc1cccc(-c2csc(NC(=O)/C=C/c3ccc(N4CCOCC4)cc3)n2)c1`, the half-maximal inhibitory concentration (IC50) in [1] was found to be 25.2 µM.

With `Cc1ccccc1-c1csc(NC(=O)/C=C/c2ccc(N3CCOCC3)cc2)n1`, the IC50 in [1] came out at 3.74 µM.

As to `Cc1cc(C)c(-c2csc(NC(=O)/C=C/c3ccc(C(C)(C)C)cc3)n2)c(C)c1`, the IC50 in test [2] was 0.74 µM; in test [3], over 90 µM; in test [4], over 90 µM; in test [5], over 90 µM; in test [6], 1.54 µM; in test [7], over 30 µM. Moreover, the IC50 is 0.11 µM in test [8]; 0.18 µM in test [1]; over 30 µM in test [9]; 0.035 µM in test [10]; 0.27 µM in test [11]. Besides, in [12], the outcome was Active. Besides, the Activity entry in test [13] is “Dose-dependent effect”; in test [14] it was 14.64%; in [15] it was 5.37%; in test [16], 21.04%; in test [17], 61.35%; in [18], 48.15%. The Activity in test [19] is reported as 23.13%; in [20], 25.37%.

In the case of `COc1cc(/C=C/C(=O)Nc2nc(-c3c(C)cc(C)cc3C)cs2)cc(OC)c1OC`, in test [1], the IC50 came to 11.8 µM.

For the compound `Cc1cc(C)c(-c2csc(NC(=O)/C=C/c3ccc(Cl)c(C(F)(F)F)c3)n2)c(C)c1`, the IC50 in test [1] turned out to be 3.06 µM.

As to `Cc1cc(C)c(-c2csc(NC(=O)/C=C/c3ccc(F)cc3)n2)c(C)c1`, the IC50 in test [1] worked out at 14 µM.

`COc1cc(C)c(-c2csc(NC(=O)/C=C/c3ccc(N4CCOCC4)cc3)n2)c(C)c1`: the IC50 is 9.65 µM in [2]; over 90 µM in test [3]; over 90 µM in test [4]; over 90 µM in test [5]; over 30 µM in [6]; 1.45 µM in test [7]. For the same compound, the IC50 in test [8] is 2.73 µM; in test [1], 1 µM; in test [9] it was over 30 µM; in test [10], 1.24 µM; in test [11], 1.56 µM.

With `O=C(/C=C/c1ccc(N2CCOCC2)cc1)Nc1nc(-c2c(F)cc(F)cc2F)cs1`, the IC50 in test [1] was 5.15 µM.

As to `Cc1ccc(-c2csc(NC(=O)/C=C/c3ccc(N4CCOCC4)cc3)n2)cc1`, in test [1], the IC50 is over 90 µM.

`O=C(/C=C/c1ccc(N2CCOCC2)cc1)Nc1nc(-c2ccccc2F)cs1`: the concentration for half-maximal inhibition (IC50) in [1] came to 4.18 µM.
